# Literature values, collected in patent publication US8686153B2, “Lenalidomide salts” (Synthon B.V., priority 2009, dated 2014).
structure (smiles),measurement,value
"Nc1cccc2c1CN(C1CCC(=O)NC1=O)C2=O (racemic) [Lenalidomide, 3-(4-amino-1-oxo-3H-isoindol-2-yl)piperidine-2,6-dione]","solubility at pH 4.6, 6.8 and 7.4",0.4-0.5 mg/ml
